Results as given in patent US20060025390A1, “Treatment of hormone allergy and related symptoms and disorders” (priority 2004, published 2006).

How the values were obtained:
[1] = tested on: patients experiencing hormone allergy symptoms; assay: Clinical responses of hormone allergy symptoms to intradermal dilute progesterone (or estrogen); format: in vivo, human; conditions: for % of Patients who Respond: any relief of symptom; for % Improvement in Responding Patients: average of patients' estimates
From the text: Patients experiencing several hormone allergy symptoms experienced relief when administered dilute doses of progesterone either sublingually or intradermally.
The symptoms measured were irritation or pain in the neck, nose, eyes, throat, ear, skin, back, hips, upper extremities and lower extremities, headache, and shortness of breath. […]
Patients were designated as responding patients in Table 1 if they experienced any relief of the indicated symptom. Patients were also asked to estimate the amount of improvement in the symptom, an average of which is
In Table 2 the probability that positive results (i.e. patients responding to treatment) were due to random effects was calculated using standard statistical analysis of patient tests. It was assumed that if the treatment has no effect, there is a 50% chance that a patient will indicate a positive response and a 50% chance that a patient will indicate a negative response. From this assumption, coupled with the actual data, one may calculate the probability that positive responses are due to an actual effect of the treatment and not simply random effects. In general, results with a less than 1% chance of being random are considered highly significant. Results with a less than 5% chance of being random are normally conclusively labeled as nonrandom. Thus, the results observed for most of the symptoms in Table 2 are highly significant, with only the results for ear irritation and pain falling merely in the nonrandom category.
Hormone samples may be prepared in any way suitable for the intended administration route. For administration through intradermal injection, samples may be prepared as they were in the studies of Examples 2 and 3. Specifically, the progesterone was formulated from commercially available injectable progesterone. Each ml of the final formulation contained […] of progesterone and 10% benzyl alcohol as a preservative in sesame oil. 0.1 ml was administered per patient intradermally. Estrogen samples were similarly prepared.

[2] = tested on: serum IgG anti-estrogen antibodies; assay: ELISA binding of IgG estrogen antibodies to different hormones in solid phase; design: species or system human; conditions: for IgG binding (optical density): hormone in solid phase, 405 nm; for IgG % reaction: relative to estrogen = 100
Description: (§1) The ELISA inhibition method was used to determine specificity and cross-reactivity between different hormones and to ensure the degree of human IgG, IgM and IgE estrogen or progesterone binding to estrogen or progesterone in solid phase. […] 100 μl of sera from three different patients with high IgG, IgM or IgE antibodies against 17-α-hydroxyprogesterone was added to all wells. After shaking and incubation for 1 hr at room temperature, addition of enzyme labeled anti-human IgG, IgM or IgE, repeat of incubation, washing, and addition of substrate, color development was measured at 405 nm. Results were calculated as percentage of anti-17-α-hydroxyprogesterone binding to 17-α-hydroxyprogesterone and other hormones. Also, anti-estrogen binding to estrogen and other hormones in solid phase by progesterone in liquid phase was performed and calculated in a similar manner.
(§2) Human sera containing 17-α-hydroxyprogesterone IgG-, IgM- and IgE-binding antibodies were reacted against progesterone, estrogen, hydrocortisone and cholesterol. In comparison to 100% binding of anti-17-α-hydroxyprogesterone-binding to 17-α-hydroxyprogesterone, the IgG anti-17-α-hydroxyprogesterone-binding to progesterone, estrogen, hydrocortisone and cholesterol was 69-77%, 25-30%, 39-53%, and less than 10% respectively (Table 4). The % binding of serum IgM and IgE anti-17-α-hydroxyprogesterone to 17-1-hydroxyprogesterone, progesterone, estrogen, hydrocortisone and cholesterol was similar to the binding of IgG. This binding of anti-17-α-hydroxyprogesterone to progesterone was the highest, followed by hydrocortisone, then estrogen, to almost no binding with cholesterol. Similar to this, human sera with IgG, IgM and IgE binding antibodies against estrogen were reacted with progesterone, 17-α-hydroxyprogesterone, hydrocortisone and cholesterol, in the presence of estrogen.

[3] = tested on: serum IgG anti-17-α-hydroxyprogesterone antibodies; assay: ELISA binding of IgG 17-α-hydroxyprogesterone antibodies to different hormones in solid phase; design: species or system human; conditions: for IgG binding (optical density): hormone in solid phase, 405 nm; for IgG % reaction: relative to 17-α-hydroxyprogesterone = 100
Description: as §1, §2

[4] = tested on: serum IgM anti-17-α-hydroxyprogesterone antibodies; assay: ELISA binding of IgM 17-α-hydroxyprogesterone antibodies to different hormones in solid phase; design: species or system human; conditions: for IgM binding (optical density): hormone in solid phase, 405 nm; for IgM % reaction: relative to 17-α-hydroxyprogesterone = 100
Description: as §1, §2

[5] = tested on: serum IgE anti-estrogen antibodies; assay: ELISA binding of IgE estrogen antibodies to different hormones in solid phase; design: species or system human; conditions: for IgE binding (optical density): hormone in solid phase, 405 nm; for IgE % reaction: relative to estrogen = 100
Description: as §1, §2

[6] = Back, of 58 patients with symptom (Table 2)
[7] = Ear, of 35 patients with symptom (Table 2)
[8] = Eyes, of 94 patients with symptom (Table 2)
[9] = Headache, of 105 patients with symptom (Table 2)
[10] = Hips, of 26 patients with symptom (Table 2)
[11] = Lower Extremity, 0.5 mg intradermally
[12] = Lower Extremity, of 51 patients with symptom (Table 2)
[13] = Neck, of 146 patients with symptom (Table 2)
[14] = Nose, of 112 patients with symptom (Table 2)
[15] = Shortness of Breath, 0.5 mg intradermally
[16] = Shortness of Breath, of 144 patients with symptom (Table 2)
[17] = Skin, of 35 patients with symptom (Table 2)
[18] = Throat, of 94 patients with symptom (Table 2)
[19] = Upper Extremity, 0.5 mg intradermally
[20] = Upper Extremity, of 63 patients with symptom (Table 2)

IgG binding (optical density) ([2]; sample 1): 0.35
IgG % reaction ([2]; sample 1): −29%
IgG binding (optical density) ([2]; sample 2): 0.48
IgG % reaction ([2]; sample 2): −27%
IgG binding (optical density) ([2]; sample 3): 0.32
IgG % reaction ([2]; sample 3): −35%
IgG anti-17-α-hydroxyprogesterone binding ([3]; in comparison to 100% binding to 17-α-hydroxyprogesterone, over three sera): 69-77%
IgG binding (optical density) ([3]; sample 1): 1.1
IgG % reaction ([3]; sample 1): −69%
IgG binding (optical density) ([3]; sample 2): 0.73
IgG % reaction ([3]; sample 2): −77%
IgG binding (optical density) ([3]; sample 3): 0.49
IgG % reaction ([3]; sample 3): −72%
IgM binding (optical density) ([4]; sample 1): 0.8
IgM % reaction ([4]; sample 1): −61%
IgM binding (optical density) ([4]; sample 2): 0.79
IgM % reaction ([4]; sample 2): −77%
IgM binding (optical density) ([4]; sample 3): 0.72
IgM % reaction ([4]; sample 3): −78%
IgE binding (optical density) ([5]; sample 1): 0.21
IgE % reaction ([5]; sample 1): −26%
IgE binding (optical density) ([5]; sample 2): 0.53
IgE % reaction ([5]; sample 2): −35%
IgE binding (optical density) ([5]; sample 3): 0.62
IgE % reaction ([5]; sample 3): −39%
SMILES: CC(=O)[C@H]1CC[C@H]2[C@@H]3CCC4=CC(=O)CC[C@]4(C)[C@H]3CC[C@]12C [Progesterone, progesterone]
% of Patients who Respond ([1]; Back, 0.5 mg intradermally): 82%
% Improvement in Responding Patients ([1]; Back, 0.5 mg intradermally): 72%
# of Responding Patients ([1]; Back, 0.5 mg intradermally, of 57 patients (Table 1)): 47
# of Responding Patients [1, 6]: 48
# of non-Responding Patients [1, 6]: 10
% of Patients who Respond ([1]; Ear, 0.5 mg intradermally): 66%
% Improvement in Responding Patients ([1]; Ear, 0.5 mg intradermally): 25%
# of Responding Patients ([1]; Ear, 0.5 mg intradermally, of 35 patients (Table 1)): 23
# of Responding Patients [1, 7]: 23
# of non-Responding Patients [1, 7]: 12
% of Patients who Respond ([1]; Eyes, 0.5 mg intradermally): 81%
% Improvement in Responding Patients ([1]; Eyes, 0.5 mg intradermally): 57%
# of Responding Patients ([1]; Eyes, 0.5 mg intradermally, of 90 patients (Table 1)): 73
# of Responding Patients [1, 8]: 75
# of non-Responding Patients [1, 8]: 19
% of Patients who Respond ([1]; Headache, 0.5 mg intradermally): 82%
% Improvement in Responding Patients ([1]; Headache, 0.5 mg intradermally): 69%
# of Responding Patients ([1]; Headache, 0.5 mg intradermally, of 103 patients (Table 1)): 84
# of Responding Patients [1, 9]: 85
# of non-Responding Patients [1, 9]: 20
% of Patients who Respond ([1]; Hips, 0.5 mg intradermally): 92%
% Improvement in Responding Patients ([1]; Hips, 0.5 mg intradermally): 79%
# of Responding Patients ([1]; Hips, 0.5 mg intradermally, of 26 patients (Table 1)): 24
# of Responding Patients [1, 10]: 24
# of non-Responding Patients [1, 10]: 2
% of Patients who Respond [1, 11]: 79%
% Improvement in Responding Patients [1, 11]: 76%
# of Responding Patients ([1]; Lower Extremity, 0.5 mg intradermally, of 61 patients (Table 1)): 48
# of Responding Patients [1, 12]: 43
# of non-Responding Patients [1, 12]: 8
% of Patients who Respond ([1]; Neck, 0.5 mg intradermally): 72%
% Improvement in Responding Patients ([1]; Neck, 0.5 mg intradermally): 62%
# of Responding Patients ([1]; Neck, 0.5 mg intradermally, of 144 patients (Table 1)): 104
# of Responding Patients [1, 13]: 106
# of non-Responding Patients [1, 13]: 40
% of Patients who Respond ([1]; Nose, 0.5 mg intradermally): 82%
% Improvement in Responding Patients ([1]; Nose, 0.5 mg intradermally): 63%
# of Responding Patients ([1]; Nose, 0.5 mg intradermally, of 109 patients (Table 1)): 89
# of Responding Patients [1, 14]: 92
# of non-Responding Patients [1, 14]: 20
% of Patients who Respond [1, 15]: 87%
% Improvement in Responding Patients [1, 15]: 67%
# of Responding Patients ([1]; Shortness of Breath, 0.5 mg intradermally, of 142 patients (Table 1)): 124
# of Responding Patients [1, 16]: 126
# of non-Responding Patients [1, 16]: 18
% of Patients who Respond ([1]; Skin, 0.5 mg intradermally): 79%
% Improvement in Responding Patients ([1]; Skin, 0.5 mg intradermally): 74%
# of Responding Patients ([1]; Skin, 0.5 mg intradermally, of 34 patients (Table 1)): 27
# of Responding Patients [1, 17]: 27
# of non-Responding Patients [1, 17]: 8
% of Patients who Respond ([1]; Throat, 0.5 mg intradermally): 76%
% Improvement in Responding Patients ([1]; Throat, 0.5 mg intradermally): 64%
# of Responding Patients ([1]; Throat, 0.5 mg intradermally, of 92 patients (Table 1)): 70
# of Responding Patients [1, 18]: 71
# of non-Responding Patients [1, 18]: 23
% of Patients who Respond [1, 19]: 80%
% Improvement in Responding Patients [1, 19]: 75%
# of Responding Patients ([1]; Upper Extremity, 0.5 mg intradermally, of 50 patients (Table 1)): 40
# of Responding Patients [1, 20]: 50
# of non-Responding Patients [1, 20]: 13
effectiveness in relieving hormone allergy symptoms compared to several other antigens ([1]; dilute doses sublingually or intradermally): most effective
